The values that follow are results of earlier work, collected in patent US6562588B2, “Sialidase and recombinant cell lines” (Genentech, Inc., priority 1993, dated 2003).

The target in data set [1] is cytosolic sialidase from rat muscle (Rattus norvegicus, UniProt Q64627). The settings on record: read-out: Ki, rat muscle sialidase (Cytosol).
The target of data set [2] is T1, lysosomal sialidase (Fibroblasts) (Homo sapiens, UniProt Q99519).
T1 construct: host or cells: fibroblasts
Conditions: read-out: Ki, fibroblast sialidase (Lysosome).

Data set [3] deals with plasma membrane sialidase (Adenovirus Transformed Kidney Cells). Conditions: read-out: Ki, adenovirus transformed kidney cell sialidase (Plasma Membrane).

Read-outs that look alike come from different tables or passages of the source.

Chain of cytosolic sialidase from rat muscle (Q64627 whole entry): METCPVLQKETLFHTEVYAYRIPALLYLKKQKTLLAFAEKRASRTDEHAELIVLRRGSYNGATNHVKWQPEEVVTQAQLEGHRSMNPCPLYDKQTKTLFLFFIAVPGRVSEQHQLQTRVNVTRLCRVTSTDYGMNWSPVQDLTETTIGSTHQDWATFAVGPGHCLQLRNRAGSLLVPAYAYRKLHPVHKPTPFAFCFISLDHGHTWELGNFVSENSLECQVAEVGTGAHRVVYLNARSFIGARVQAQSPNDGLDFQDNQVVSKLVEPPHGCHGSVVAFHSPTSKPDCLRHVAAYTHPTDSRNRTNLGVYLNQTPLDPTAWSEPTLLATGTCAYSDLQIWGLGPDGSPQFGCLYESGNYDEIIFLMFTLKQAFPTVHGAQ

By Ki is commonly meant the equilibrium dissociation constant of an inhibitor or competing ligand from its target. Consider `CC(=O)N[C@H]1[C@H]([C@H](O)[C@H](O)CSc2ccc(N=[N+]=[N-])cc2[N+](=O)[O-])OC(C(=O)O)=C[C@@H]1O` [9-S-PANP Neu5Ac2en, 9-S-(4′-azido-2′-nitro-phenyl)-5-acetamido-2,6 anhydro-9-thio-2,5,9-trideoxy-D-glycero-D-galacto-non-2-enonic acid], for which the Ki in data set [1] (4-MU-Neu5Ac as substrate, previously reported data) was greater than 50 µM.
As for `CC(=O)N[C@H]1[C@H]([C@H](O)[C@H](O)CN=[N+]=[N-])OC(C(=O)O)=C[C@@H]1O` [9-Azido Neu5Ac2en, 5-acetamido-2,6-anhydro-9-azido-3,5,9-trideoxy-D-glycero-D-galacto-non-2-enonic acid], the Ki in data set [1] was 50 µM; in data set [2] it was 10 µM; in data set [3] it was 10 µM.
